Values after ≈ are worked out from the molar mass of the structure shown.
Tests used:
Type in all cases: functional
Pseudomonas fluorescens [1] = experiment: Antibacterial activity against Pseudomonas fluorescens MTCC 2421 at 100 ug/ml after 18 hr by cup-plate method; conditions: MTCC 2421, 18 h, read-out: DIZ
Micrococcus luteus [2] = experiment: Antibacterial activity against Micrococcus luteus MTCC 1538 at 1000 ug/ml after 18 hr by cup-plate method; conditions: MTCC 1538, 18 h, read-out: DIZ
Penicillium chrysogenum [3] = experiment: Antifungal activity against Penicillium chrysogenum MTCC 161 at 1000 ug/ml after 18 hr by cup-plate method; conditions: MTCC 161, 18 h, read-out: DIZ
Pseudomonas fluorescens [4] = experiment: Antibacterial activity against Pseudomonas fluorescens MTCC 2421 at 500 ug/ml after 18 hr by cup-plate method; conditions: MTCC 2421, 18 h, read-out: DIZ
Micrococcus luteus [5] = experiment: Antibacterial activity against Micrococcus luteus MTCC 1538 at 200 ug/ml after 18 hr by cup-plate method; conditions: MTCC 1538, 18 h, read-out: DIZ
Staphylococcus aureus [6] = experiment: Antibacterial activity against Staphylococcus aureus MTCC 1430 at 1500 ug/ml after 18 hr by cup-plate method; conditions: MTCC 1430, 18 h, read-out: DIZ
Pseudomonas aeruginosa [7] = experiment: Antibacterial activity against Pseudomonas aeruginosa MTCC 424 after 24 hr by broth dilution method; conditions: MTCC 424, 24 h
Bacillus subtilis [8] = experiment: Antibacterial activity against Bacillus subtilis MTCC 441 at 1000 ug/ml after 18 hr by cup plate method; conditions: MTCC 441, 18 h, read-out: DIZ
Micrococcus luteus [9] = experiment: Antibacterial activity against Micrococcus luteus MTCC 1538 after 24 hr by broth dilution method; conditions: MTCC 1538, 24 h
Staphylococcus aureus [10] = experiment: Antibacterial activity against Staphylococcus aureus MTCC 1430 at 1000 ug/ml after 18 hr by cup-plate method; conditions: MTCC 1430, 18 h, read-out: DIZ
Aspergillus niger [11] = experiment: Antifungal activity against Aspergillus niger MTCC 2546 at 200 ug/ml after 18 hr by cup-plate method; conditions: MTCC 2546, 18 h, read-out: DIZ
Bacillus subtilis [12] = experiment: Antibacterial activity against Bacillus subtilis MTCC 441 at 500 ug/ml after 18 hr by cup plate method; conditions: MTCC 441, 18 h, read-out: DIZ
Bacillus pumilus [13] = experiment: Antibacterial activity against Bacillus pumilus MTCC 1456 at 1000 ug/ml after 18 hr by cup-plate method; conditions: MTCC 1456, 18 h, read-out: DIZ
Penicillium chrysogenum [14] = experiment: Antifungal activity against Penicillium chrysogenum MTCC 161 at 200 ug/ml after 18 hr by cup-plate method; conditions: MTCC 161, 18 h, read-out: DIZ
Bacillus pumilus [15] = experiment: Antibacterial activity against Bacillus pumilus MTCC 1456 after 24 hr by broth dilution method; conditions: MTCC 1456, 24 h
Pseudomonas fluorescens [16] = experiment: Antibacterial activity against Pseudomonas fluorescens MTCC 2421 at 1500 ug/ml after 18 hr by cup-plate method; conditions: MTCC 2421, 18 h, read-out: DIZ
Bacillus pumilus [17] = experiment: Antibacterial activity against Bacillus pumilus MTCC 1456 at 1500 ug/ml after 18 hr by cup-plate method; conditions: MTCC 1456, 18 h, read-out: DIZ
Aspergillus niger [18] = experiment: Antifungal activity against Aspergillus niger MTCC 2546 after 24 hr by broth dilution method; conditions: MTCC 2546, 24 h
Pseudomonas fluorescens [19] = experiment: Antibacterial activity against Pseudomonas fluorescens MTCC 2421 at 200 ug/ml after 18 hr by cup-plate method; conditions: MTCC 2421, 18 h, read-out: DIZ
Escherichia coli [20] = experiment: Antibacterial activity against Escherichia coli MTCC 1573 at 1500 ug/ml after 18 hr by cup-plate method; conditions: MTCC 1573, 18 h, read-out: DIZ
Pseudomonas fluorescens [21] = experiment: Antibacterial activity against Pseudomonas fluorescens MTCC 2421 at 1000 ug/ml after 18 hr by cup-plate method; conditions: MTCC 2421, 18 h, read-out: DIZ
Micrococcus luteus [22] = experiment: Antibacterial activity against Micrococcus luteus MTCC 1538 at 500 ug/ml after 18 hr by cup-plate method; conditions: MTCC 1538, 18 h, read-out: DIZ
Bacillus subtilis [23] = experiment: Antibacterial activity against Bacillus subtilis MTCC 441 at 100 ug/ml after 18 hr by cup plate method; conditions: MTCC 441, 18 h, read-out: DIZ
Bacillus subtilis [24] = experiment: Antibacterial activity against Bacillus subtilis MTCC 441 at 200 ug/ml after 18 hr by cup plate method; conditions: MTCC 441, 18 h, read-out: DIZ
Bacillus pumilus [25] = experiment: Antibacterial activity against Bacillus pumilus MTCC 1456 at 500 ug/ml after 18 hr by cup-plate method; conditions: MTCC 1456, 18 h, read-out: DIZ
Bacillus pumilus [26] = experiment: Antibacterial activity against Bacillus pumilus MTCC 1456 at 100 ug/ml after 18 hr by cup-plate method; conditions: MTCC 1456, 18 h, read-out: DIZ
Pseudomonas aeruginosa [27] = experiment: Antibacterial activity against Pseudomonas aeruginosa MTCC 424 at 100 ug/ml after 18 hr by cup-plate method; conditions: MTCC 424, 18 h, read-out: DIZ
Staphylococcus aureus [28] = experiment: Antibacterial activity against Staphylococcus aureus MTCC 1430 at 200 ug/ml after 18 hr by cup-plate method; conditions: MTCC 1430, 18 h, read-out: DIZ
Escherichia coli [29] = experiment: Antibacterial activity against Escherichia coli MTCC 1573 at 200 ug/ml after 18 hr by cup-plate method; conditions: MTCC 1573, 18 h, read-out: DIZ
Pseudomonas aeruginosa [30] = experiment: Antibacterial activity against Pseudomonas aeruginosa MTCC 424 at 200 ug/ml after 18 hr by cup-plate method; conditions: MTCC 424, 18 h, read-out: DIZ
Penicillium chrysogenum [31] = experiment: Antifungal activity against Penicillium chrysogenum MTCC 161 at 1500 ug/ml after 18 hr by cup-plate method; conditions: MTCC 161, 18 h, read-out: DIZ
Aspergillus niger [32] = experiment: Antifungal activity against Aspergillus niger MTCC 2546 at 100 ug/ml after 18 hr by cup-plate method; conditions: MTCC 2546, 18 h, read-out: DIZ
Aspergillus niger [33] = experiment: Antifungal activity against Aspergillus niger MTCC 2546 at 1500 ug/ml after 18 hr by cup-plate method; conditions: MTCC 2546, 18 h, read-out: DIZ
Penicillium chrysogenum [34] = experiment: Antifungal activity against Penicillium chrysogenum MTCC 161 after 24 hr by broth dilution method; conditions: MTCC 161, 24 h
Penicillium chrysogenum [35] = experiment: Antifungal activity against Penicillium chrysogenum MTCC 161 at 500 ug/ml after 18 hr by cup-plate method; conditions: MTCC 161, 18 h, read-out: DIZ
Escherichia coli [36] = experiment: Antibacterial activity against Escherichia coli MTCC 1573 after 24 hr by broth dilution method; conditions: MTCC 1573, 24 h
Pseudomonas aeruginosa [37] = experiment: Antibacterial activity against Pseudomonas aeruginosa MTCC 424 at 1000 ug/ml after 18 hr by cup-plate method; conditions: MTCC 424, 18 h, read-out: DIZ
Staphylococcus aureus [38] = experiment: Antibacterial activity against Staphylococcus aureus MTCC 1430 after 24 hr by broth dilution method; conditions: MTCC 1430, 24 h
Micrococcus luteus [39] = experiment: Antibacterial activity against Micrococcus luteus MTCC 1538 at 1500 ug/ml after 18 hr by cup-plate method; conditions: MTCC 1538, 18 h, read-out: DIZ
Bacillus subtilis [40] = experiment: Antibacterial activity against Bacillus subtilis MTCC 441 after 24 hr by broth dilution method; conditions: MTCC 441, 24 h
Pseudomonas fluorescens [41] = experiment: Antibacterial activity against Pseudomonas fluorescens MTCC 2421 after 24 hr by broth dilution method; conditions: MTCC 2421, 24 h
Bacillus pumilus [42] = experiment: Antibacterial activity against Bacillus pumilus MTCC 1456 at 200 ug/ml after 18 hr by cup-plate method; conditions: MTCC 1456, 18 h, read-out: DIZ
Staphylococcus aureus [43] = experiment: Antibacterial activity against Staphylococcus aureus MTCC 1430 at 500 ug/ml after 18 hr by cup-plate method; conditions: MTCC 1430, 18 h, read-out: DIZ
Aspergillus niger [44] = experiment: Antifungal activity against Aspergillus niger MTCC 2546 at 500 ug/ml after 18 hr by cup-plate method; conditions: MTCC 2546, 18 h, read-out: DIZ
Escherichia coli [45] = experiment: Antibacterial activity against Escherichia coli MTCC 1573 at 100 ug/ml after 18 hr by cup-plate method; conditions: MTCC 1573, 18 h, read-out: DIZ
Bacillus subtilis [46] = experiment: Antibacterial activity against Bacillus subtilis MTCC 441 at 1500 ug/ml after 18 hr by cup plate method; conditions: MTCC 441, 18 h, read-out: DIZ
Escherichia coli [47] = experiment: Antibacterial activity against Escherichia coli MTCC 1573 at 1000 ug/ml after 18 hr by cup-plate method; conditions: MTCC 1573, 18 h, read-out: DIZ
Penicillium chrysogenum [48] = experiment: Antifungal activity against Penicillium chrysogenum MTCC 161 at 100 ug/ml after 18 hr by cup-plate method; conditions: MTCC 161, 18 h, read-out: DIZ
Aspergillus niger [49] = experiment: Antifungal activity against Aspergillus niger MTCC 2546 at 1000 ug/ml after 18 hr by cup-plate method; conditions: MTCC 2546, 18 h, read-out: DIZ
Escherichia coli [50] = experiment: Antibacterial activity against Escherichia coli MTCC 1573 at 500 ug/ml after 18 hr by cup-plate method; conditions: MTCC 1573, 18 h, read-out: DIZ
Pseudomonas aeruginosa [51] = experiment: Antibacterial activity against Pseudomonas aeruginosa MTCC 424 at 500 ug/ml after 18 hr by cup-plate method; conditions: MTCC 424, 18 h, read-out: DIZ
Pseudomonas aeruginosa [52] = experiment: Antibacterial activity against Pseudomonas aeruginosa MTCC 424 at 1500 ug/ml after 18 hr by cup-plate method; conditions: MTCC 424, 18 h, read-out: DIZ
Micrococcus luteus [53] = experiment: Antibacterial activity against Micrococcus luteus MTCC 1538 at 100 ug/ml after 18 hr by cup-plate method; conditions: MTCC 1538, 18 h, read-out: DIZ

## C(=N\c1nc[nH]n1)/c1ccco1
Pseudomonas fluorescens [1]
  zone of inhibition at 100 µg/mL: 13 mm
Micrococcus luteus [2]
  zone of inhibition at 1000 µg/mL: 21 mm
Penicillium chrysogenum [3]
  zone of inhibition at 1000 µg/mL: 18 mm
Pseudomonas fluorescens [4]
  zone of inhibition at 500 µg/mL: 18 mm
Micrococcus luteus [5]
  zone of inhibition at 200 µg/mL: 16 mm
Staphylococcus aureus [6]
  zone of inhibition at 1500 µg/mL: 18 mm
Pseudomonas aeruginosa [7]
  MIC: 500 µg/mL (≈ 3080 µM)
Bacillus subtilis [8]
  zone of inhibition at 1000 µg/mL: 17 mm
Micrococcus luteus [9]
  MIC: 300 µg/mL (≈ 1850 µM)
Staphylococcus aureus [10]
  zone of inhibition at 1000 µg/mL: 15 mm
Aspergillus niger [11]
  zone of inhibition at 200 µg/mL: 16 mm
Bacillus subtilis [12]
  zone of inhibition at 500 µg/mL: 16 mm
Bacillus pumilus [13]
  zone of inhibition at 1000 µg/mL: 17 mm
Penicillium chrysogenum [14]
  zone of inhibition at 200 µg/mL: 15 mm
Bacillus pumilus [15]
  MIC: 300 µg/mL (≈ 1850 µM)
Pseudomonas fluorescens [16]
  zone of inhibition at 1500 µg/mL: 23 mm
Bacillus pumilus [17]
  zone of inhibition at 1500 µg/mL: 20 mm
Aspergillus niger [18]
  MIC: 500 µg/mL (≈ 3080 µM)
Pseudomonas fluorescens [19]
  zone of inhibition at 200 µg/mL: 16 mm
Escherichia coli [20]
  zone of inhibition at 1500 µg/mL: 25 mm
Pseudomonas fluorescens [21]
  zone of inhibition at 1000 µg/mL: 20 mm
Micrococcus luteus [22]
  zone of inhibition at 500 µg/mL: 18 mm
Bacillus subtilis [23]
  zone of inhibition at 100 µg/mL: 11 mm
Bacillus subtilis [24]
  zone of inhibition at 200 µg/mL: 15 mm
Bacillus pumilus [25]
  zone of inhibition at 500 µg/mL: 16 mm
Bacillus pumilus [26]
  zone of inhibition at 100 µg/mL: 11 mm
Pseudomonas aeruginosa [27]
  zone of inhibition at 100 µg/mL: 10 mm
Staphylococcus aureus [28]
  zone of inhibition at 200 µg/mL: 12 mm
Escherichia coli [29]
  zone of inhibition at 200 µg/mL: 13 mm
Pseudomonas aeruginosa [30]
  zone of inhibition at 200 µg/mL: 11 mm
Penicillium chrysogenum [31]
  zone of inhibition at 1500 µg/mL: 21 mm
Aspergillus niger [32]
  zone of inhibition at 100 µg/mL: 11 mm
Aspergillus niger [33]
  zone of inhibition at 1500 µg/mL: 23 mm
Penicillium chrysogenum [34]
  MIC: 500 µg/mL (≈ 3080 µM)
Penicillium chrysogenum [35]
  zone of inhibition at 500 µg/mL: 17 mm
Escherichia coli [36]
  MIC: 400 µg/mL (≈ 2470 µM)
Pseudomonas aeruginosa [37]
  zone of inhibition at 1000 µg/mL: 15 mm
Staphylococcus aureus [38]
  MIC: 600 µg/mL (≈ 3700 µM)
Micrococcus luteus [39]
  zone of inhibition at 1500 µg/mL: 22 mm
Bacillus subtilis [40]
  MIC: 300 µg/mL (≈ 1850 µM)
Pseudomonas fluorescens [41]
  MIC: 300 µg/mL (≈ 1850 µM)
Bacillus pumilus [42]
  zone of inhibition at 200 µg/mL: 15 mm
Staphylococcus aureus [43]
  zone of inhibition at 500 µg/mL: 14 mm
Aspergillus niger [44]
  zone of inhibition at 500 µg/mL: 18 mm
Escherichia coli [45]
  zone of inhibition at 100 µg/mL: 10 mm
Bacillus subtilis [46]
  zone of inhibition at 1500 µg/mL: 22 mm
Escherichia coli [47]
  zone of inhibition at 1000 µg/mL: 15 mm
Penicillium chrysogenum [48]
  zone of inhibition at 100 µg/mL: 11 mm
Aspergillus niger [49]
  zone of inhibition at 1000 µg/mL: 19 mm
Escherichia coli [50]
  zone of inhibition at 500 µg/mL: 14 mm
Pseudomonas aeruginosa [51]
  zone of inhibition at 500 µg/mL: 13 mm
Pseudomonas aeruginosa [52]
  zone of inhibition at 1500 µg/mL: 21 mm
Micrococcus luteus [53]
  zone of inhibition at 100 µg/mL: 12 mm

From ChEMBL document CHEMBL3045835, “Comparative study of conventional and microwave-assisted synthesis of some Schiff bases and their potential as antimicrobial agents” (2012)
